Source: patent US20070004660A1, “Synergistic Modulation of Flt3 Kinase Using Alkylquinolines and Alkylquinazolines” (priority 2005, published 2007)

Target: T1, wild-type FLT3 receptor (Homo sapiens, UniProt P36888)
T1 construct: host or cells: Baf3 (murine B cell lymphoma line), stably transfected
T1 sequence (P36888 27-993): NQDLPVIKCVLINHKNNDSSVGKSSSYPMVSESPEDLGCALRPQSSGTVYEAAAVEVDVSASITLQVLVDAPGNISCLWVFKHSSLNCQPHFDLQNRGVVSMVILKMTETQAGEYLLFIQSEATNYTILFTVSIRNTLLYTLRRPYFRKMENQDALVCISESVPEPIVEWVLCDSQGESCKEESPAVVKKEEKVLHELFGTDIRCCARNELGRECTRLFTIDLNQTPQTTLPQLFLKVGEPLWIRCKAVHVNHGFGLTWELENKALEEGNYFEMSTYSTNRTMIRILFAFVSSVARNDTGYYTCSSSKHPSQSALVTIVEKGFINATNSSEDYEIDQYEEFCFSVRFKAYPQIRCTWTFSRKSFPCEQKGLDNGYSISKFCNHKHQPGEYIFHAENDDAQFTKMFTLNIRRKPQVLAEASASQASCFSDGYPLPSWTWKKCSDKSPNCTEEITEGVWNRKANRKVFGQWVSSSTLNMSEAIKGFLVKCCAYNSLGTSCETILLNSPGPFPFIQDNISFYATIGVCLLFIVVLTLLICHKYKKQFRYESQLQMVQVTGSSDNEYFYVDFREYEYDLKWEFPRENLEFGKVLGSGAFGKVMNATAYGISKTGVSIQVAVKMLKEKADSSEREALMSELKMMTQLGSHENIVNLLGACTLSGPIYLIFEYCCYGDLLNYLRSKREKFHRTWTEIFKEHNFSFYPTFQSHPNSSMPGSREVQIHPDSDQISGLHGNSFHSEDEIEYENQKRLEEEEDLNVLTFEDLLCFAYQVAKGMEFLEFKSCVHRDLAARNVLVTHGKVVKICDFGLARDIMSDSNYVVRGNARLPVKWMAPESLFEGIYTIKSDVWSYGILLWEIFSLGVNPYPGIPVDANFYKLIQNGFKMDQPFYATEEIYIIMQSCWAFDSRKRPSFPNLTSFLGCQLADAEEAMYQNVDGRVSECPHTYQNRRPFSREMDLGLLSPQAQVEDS
Experiment: Cell-based FLT3 receptor ELISA (FLT ligand-induced phosphorylation in Baf3 FLT3 cells)
Conditions: 100 ng/mL Flt ligand, uncertainty ±20%
Description: Specific cellular inhibition of FLT ligand-induced wild-type FLT3 phosphorylation was measured in the following manner: Baf3 FLT3 cells overexpressing the FLT3 receptor were obtained from Dr. Michael Heinrich (Oregon Health and Sciences University). The Baf3 FLT3 cell lines were created by stable transfection of parental Baf3 cells (a murine B cell lymphoma line dependent on the cytokine IL-3 for growth) with wild-type FLT3. Cells were selected for their ability to grow in the absence of IL-3 and in the presence of FLT3 ligand. Baf3 cells were maintained in RPMI 1640 with 10% FBS, penn/strep and 10 ng/ml FLT ligand at 37° C., 5% CO2. To measure direct inhibition of the wild-type FLT3 receptor activity and phosphorylation a sandwich ELISA method was developed similar to those developed for other RTKs (see Sadick, M D, Sliwkowski, M X, Nuijens, A, Bald, L, Chiang, N, Lofgren, J A, Wong W L T. Analysis of Heregulin-Induced ErbB2 Phosphorylation with a High-Throughput Kinase Receptor Activation Enzyme-Linked Immunsorbent Assay, Analytical Biochemistry. 1996; 235:207-214 and Baumann C A, Zeng L, Donatelli R R, Maroney A C. Development of a quantitative, high-throughput cell-based enzyme-linked immunosorbent assay for detection of colony-stimulating factor-1 receptor tyrosine kinase inhibitors. J Biochem Biophys Methods. 2004; 60:69-79.). 200 μL of Baf3FLT3 cells (1×10^6 /mL) were plated in 96 well dishes in RPMI 1640 with 0.5% serum and 0.01 ng/mL IL-3 for 16 hours prior to 1 hour compound or DMSO vehicle incubation. Cells were treated with 100 ng/mL Flt ligand (R&D Systems Cat# 308-FK) for 10 min. at 37° C. Cells were pelleted, washed and lysed in 100 ul lysis buffer (50 mM Hepes, 150 mM NaCl, 10% Glycerol, 1% Triton-X-100, 10 mM NaF, 1 mM EDTA, 1.5 mM MgCl2, 10 mM NaPyrophosphate) supplemented with phosphatase (Sigma Cat# P2850) and protease inhibitors (Sigma Cat #P8340). Lysates were cleared by centrifugation at 1000×g for 5 minutes at 4° C. Cell lysates were transferred to white wall 96 well microtiter (Costar #9018) plates coated with 50 ng/well anti-FLT3 antibody (Santa Cruz Cat# sc-480) and blocked with SeaBlock reagent (Pierce Cat#37527). Lysates were incubated at 4° C. for 2 hours. Plates were washed 3× with 200 ul/well PBS/0.1% Triton-X-100. Plates were then incubated with 1:8000 dilution of HRP-conjugated anti-phosphotyrosine antibody (Clone 4G10, Upstate Biotechnology Cat#16-105) for 1 hour at room temperature. Plates were washed 3× with 200 ul/well PBS/0.1% Triton-X-100. Signal detection with Super Signal Pico reagent (Pierce Cat#37070) was done according to manufacturer's instruction with a Berthold microplate luminometer. All data points are an average of triplicate samples. […] Inhibition and IC50 data analysis was done with GraphPad Prism using a non-linear regression fit with a multiparamater, sigmoidal dose-response (variable slope) equation.

## CC(=O)N1CCN(CCCOc2ccc3c(C4CCN(C(=O)Nc5ccc(N6CCOCC6)cc5)CC4)ncnc3c2)CC1 [Example 117, 4-{7-[3-(4-Acetyl-piperazin-1-yl)-propoxy]-quinazolin-4-yl}-piperidine-1-carboxylic acid (4-morpholin-4-yl-phenyl)-amide]
  IC50: 88 nM

## CC(C)Oc1ccc(NC(=O)N2CCC(c3ncnc4ccc(OCCCN5CCN(C)CC5)cc34)CC2)cc1 [Example 76, 4-{6-[3-(4-Methyl-piperazin-1-yl)-propoxy]-quinazolin-4-yl}-piperidine-1-carboxylic acid (4-isopropoxy-phenyl)-amide]
  IC50: 96 nM

## O=C1CCCN1CCOc1ccc2c(C3CCN(C(=O)Nc4ccc(N5CCCC5)cc4)CC3)ncnc2c1 [Example 74, 4-{7-[2-(2-Oxo-pyrrolidin-1-yl)-ethoxy]-quinazolin-4-yl}-piperidine-1-carboxylic acid (4-pyrrolidin-1-yl-phenyl)-amide]
  IC50: 12 nM

## CN1CCC(COc2ccc3c(C4CCN(C(=O)Nc5ccc(N6CCCC6)nc5)CC4)ncnc3c2)CC1 [Example 99, 4-[7-(1-Methyl-piperidin-4-ylmethoxy)-quinazolin-4-yl]-piperidine-1-carboxylic acid (6-pyrrolidin-1-yl-pyridin-3-yl)-amide]
  IC50: 14 nM

## CS(=O)(=O)NCCCOc1ccc2c(C3CCN(C(=O)Nc4ccc(N5CCOCC5)cc4)CC3)ncnc2c1 [Example 66, 4-[7-(3-Methanesulfonylamino-propoxy)-quinazolin-4-yl]-piperidine-1-carboxylic acid (4-morpholin-4-yl-phenyl)-amide]
  IC50: 13 nM

## O=C(Nc1ccc(N2CCCC2)nc1)N1CCC(c2ncnc3cc(OCCN4CCOC4=O)ccc23)CC1 [Example 92, 4-{7-[2-(2-Oxo-oxazolidin-3-yl)-ethoxy]-quinazolin-4-yl}-piperidine-1-carboxylic acid (6-pyrrolidin-1-yl-pyridin-3-yl)-amide]
  IC50: 12 nM

## O=C1CCCN1CCOc1ccc2c(C3CCN(C(=O)Nc4ccc(N5CCOCC5)nc4)CC3)ncnc2c1 [Example 83, 4-{7-[2-(2-Oxo-pyrrolidin-1-yl)-ethoxy]-quinazolin-4-yl}-piperidine-1-carboxylic acid (6-morpholin-4-yl-pyridin-3-yl)-amide]
  IC50: 37 nM

## CC(C)Oc1ccc(NC(=O)N2CCC(c3ncnc4cc(OCCCNS(C)(=O)=O)ccc34)CC2)cc1 [Example 65, 4-[7-(3-Methanesulfonylamino-propoxy)-quinazolin-4-yl]-piperidine-1-carboxylic acid (4-isopropoxy-phenyl)-amide]
  IC50: 37 nM

## COc1cc2ncnc(C3CCN(C(=O)Nc4ccc(C(C)(C)C)cc4)CC3)c2cc1OC [Example 53, 4-(6,7-Dimethoxy-quinazolin-4-yl)-piperidine-1-carboxylic acid (4-tert-butyl-phenyl)-amide]
  IC50: 5 nM

## O=C1CCCN1CCCOc1ccc2c(C3CCN(C(=O)Nc4ccc(N5CCOCC5)nc4)CC3)ncnc2c1 [Example 72, 4-{7-[3-(2-Oxo-pyrrolidin-1-yl)-propoxy]-quinazolin-4-yl}-piperidine-1-carboxylic acid (6-morpholin-4-yl-pyridin-3-yl)-amide]
  IC50: 28 nM

## COCCCOc1ccc2c(C3CCN(C(=O)Nc4ccc(N5CCOCC5)cc4)CC3)ncnc2c1 [Example 78, 4-[7-(3-Methoxy-propoxy)-quinazolin-4-yl]-piperidine-1-carboxylic acid (4-morpholin-4-yl-phenyl)-amide]
  IC50: 20 nM

## COc1cc2ncnc(C3CCN(C(=O)Nc4ccc(OC(C)C)nc4)CC3)c2cc1OC [Example 56, 4-(6,7-Dimethoxy-quinazolin-4-yl)-piperidine-1-carboxylic acid (6-isopropoxy-pyridin-3-yl)-amide]
  IC50: 10 nM

## O=C(Nc1ccc(N2CCOCC2)cc1)N1CCC(c2ncnc3cc(OCCCN4CCCCC4)ccc23)CC1 [Example 75]
  IC50: 84 nM

## CC(C)Oc1ccc(NC(=O)N2CCC(c3ncnc4ccccc34)CC2)cc1 [Example 8, 4-Quinazolin-4-yl-piperidine-1-carboxylic acid (4-isopropoxy-phenyl)-amide]
  IC50: 851 nM

## CC(C)Oc1ccc(NC(=O)N2CCC(c3ncnc4ccc(C#CCO)cc34)CC2)cc1 [Example 12, 4-[6-(3-Hydroxy-prop-1-ynyl)-quinazolin-4-yl]-piperidine-1-carboxylic acid (4-isopropoxy-phenyl)-amide]
  IC50: 36 nM

## COc1cc2ncnc(C3CCN(C(=O)Nc4ccc(C(C)O)cc4)CC3)c2cc1OC (centres unmarked) [Example 55, 4-(6,7-Dimethoxy-quinazolin-4-yl)-piperidine-1-carboxylic acid [4-(1-hydroxy-ethyl)-phenyl]-amide]
  IC50: 1000 nM

## COc1cc2ncnc(C3CCN(C(=O)Nc4ccc(OC(F)F)cc4)CC3)c2cc1OC [Example 51, 4-(6,7-Dimethoxy-quinazolin-4-yl)-piperidine-1-carboxylic acid (4-difluoromethoxy-phenyl)-amide]
  IC50: 542 nM

## CC(C)Oc1ccc(NC(=O)N2CCC(c3ncnc4cc(OCCCOS(C)(=O)=O)ccc34)CC2)cc1 [Example 121, Methanesulfonic acid 3-{4-[1-(4-isopropoxy-phenylcarbamoyl)-piperidin-4-yl]-quinazolin-7-yloxy}-propyl ester]
  IC50: 117 nM

## CCC(C)c1ccc(NC(=O)N2CCC(c3ncnc4cc(OC)c(OC)cc34)CC2)cc1 (centres unmarked) [Example 52, 4-(6,7-Dimethoxy-quinazolin-4-yl)-piperidine-1-carboxylic acid (4-sec-butyl-phenyl)-amide]
  IC50: 7 nM

## CC(C)Oc1ccc(NC(=O)N2CCC(c3ncnc4cc(OCCN5CCOC5=O)ccc34)CC2)cc1 [Example 79, 4-{7-[2-(2-Oxo-oxazolidin-3-yl)-ethoxy]-quinazolin-4-yl}-piperidine-1-carboxylic acid (4-isopropoxy-phenyl)-amide]
  IC50: 17 nM

## COc1cc2ncnc(C3CCN(C(=O)Nc4ccc(N5CCCC5=O)cc4)CC3)c2cc1OC [Example 57, 4-(6,7-Dimethoxy-quinazolin-4-yl)-piperidine-1-carboxylic acid [4-(2-oxo-pyrrolidin-1-yl)-phenyl]-amide]
  IC50: 381 nM

## CC(C)Oc1ccc(NC(=O)N2CCC(c3ncnc4ccc(I)cc34)CC2)cc1 [Example 11, 4-(6-Iodo-quinazolin-4-yl)-piperidine-1-carboxylic acid (4-isopropoxy-phenyl)-amide]
  IC50: 1400 nM

## CN1CCN(CCCOc2ccc3c(C4CCN(C(=O)Nc5ccc(N6CCOCC6)c(F)c5)CC4)ncnc3c2)CC1 [Example 81, 4-{7-[3-(4-Methyl-piperazin-1-yl)-propoxy]-quinazolin-4-yl}-piperidine-1-carboxylic acid (3-fluoro-4-morpholin-4-yl-phenyl)-amide]
  IC50: 28 nM
